# According to ChEMBL document CHEMBL1201862, “PubChem BioAssay data set” (2004):
#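 How tested: cells in 96-well plates exposed to compound for 48 hours at five concentrations. Abbreviation: GI50, concentration required for 50% inhibition of growth.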 Active and inactive are the calls of the source. No stated cut-off is given here; in the data, active = GI50 up to about 1.1 µM and inactive = higher.
# Experiments:
# Experiment in all cases: growth of human tumour cells (NCI), 48 h
# [1] = tested on: A498
# [2] = tested on: CAKI-1
# [3] = tested on: HCT-15
# [4] = tested on: HL-60
# [5] = tested on: HOP-62
# [6] = tested on: IGROV-1
# [7] = tested on: K562
# [8] = tested on: MCF7
# [9] = tested on: Malme-3M
# [10] = tested on: NCI-H460
# [11] = tested on: NCI/ADR-RES
# [12] = tested on: PC-3
# [13] = tested on: RXF 393
# [14] = tested on: SF-268
# [15] = tested on: SF-539
# [16] = tested on: SK-MEL-2
# [17] = tested on: SN12C
# [18] = tested on: SNB-75
# [19] = tested on: U-251
# [20] = tested on: UO-31
Structure (SMILES),GI50 [1],GI50 [2],GI50 [3] [µM],GI50 [4],GI50 [5],GI50 [6],GI50 [7],GI50 [8],GI50 [9],GI50 [10],GI50 [11],GI50 [12],GI50 [13],GI50 [14],GI50 [15],GI50 [16],GI50 [17],GI50 [18],GI50 [19],GI50 [20]
Cc1cc(N(CCC#N)CCC#N)ccc1/C=C1N=C(/C=C\c2ccccc2)N(c2ccc(Cl)cc2)C\1=O,> 100 µM (inactive),> 24.3 µM (inactive),0.718,6.05 µM (inactive),5.21 µM (inactive),47.3 µM (inactive),0.607 µM (active),29.2 µM (inactive),17.7 µM (inactive),10.8 µM (inactive),> 100 µM (inactive),0.536 µM (active),> 100 µM (inactive),> 22 µM (inactive),6.71 µM (inactive),> 54.8 µM (inactive),> 45 µM (inactive),> 100 µM (inactive),> 28.6 µM (inactive),7.36 µM (inactive)
COc1ccccc1CC1(O)OC(=O)c2ccccc21 (stereo not given),> 100 µM (inactive),> 100 µM (inactive),> 100,> 100 µM (inactive),> 100 µM (inactive),> 100 µM (inactive),> 100 µM (inactive),> 100 µM (inactive),> 100 µM (inactive),> 100 µM (inactive),> 100 µM (inactive),> 100 µM (inactive),> 100 µM (inactive),> 100 µM (inactive),> 100 µM (inactive),> 100 µM (inactive),> 100 µM (inactive),> 100 µM (inactive),> 100 µM (inactive),> 100 µM (inactive)
C=CCCCCNC(=O)C[C@@H]1C2=C(CC[C@H]1O[Si](C)(C)C(C)(C)C)N1C(=O)CCC/C=C\C1C2 (stereo not given in full),15.2 µM (inactive),12.4 µM (inactive),14,1.84 µM (inactive),17.9 µM (inactive),15.6 µM (inactive),5.3 µM (inactive),12.2 µM (inactive),14.7 µM (inactive),14.3 µM (inactive),12.2 µM (inactive),12 µM (inactive),10.8 µM (inactive),15.5 µM (inactive),17.5 µM (inactive),13.2 µM (inactive),15.4 µM (inactive),16.4 µM (inactive),13.5 µM (inactive),14.2 µM (inactive)
CN(C)c1ccc(/C=C2\C[C@H]3[C@@H]4CCC5=CC(=O)CC[C@]5(C)[C@H]4CC[C@]3(C)C2=O)cc1,37.7 µM (inactive),> 100 µM (inactive),34.4,17.2 µM (inactive),> 100 µM (inactive),63.1 µM (inactive),19 µM (inactive),21.8 µM (inactive),25 µM (inactive),17.4 µM (inactive),38.3 µM (inactive),12.6 µM (inactive),99.5 µM (inactive),46.3 µM (inactive),28.7 µM (inactive),50.9 µM (inactive),44.3 µM (inactive),> 100 µM (inactive),20.2 µM (inactive),63.2 µM (inactive)
OCC(S)CS.[Bi] (stereo not given),27 µM (inactive),11.8 µM (inactive),15,16.2 µM (inactive),19.1 µM (inactive),18.3 µM (inactive),5.68 µM (inactive),18.5 µM (inactive),3.97 µM (inactive),13.4 µM (inactive),36.1 µM (inactive),13.1 µM (inactive),10.7 µM (inactive),5.43 µM (inactive),15.4 µM (inactive),12.6 µM (inactive),15.8 µM (inactive),11.1 µM (inactive),15.1 µM (inactive),16.7 µM (inactive)
O=[N+]([O-])C(C(Cl)=C(Cl)Cl)=C(N(Cc1ccccc1)Cc1ccccc1)N(Cc1ccccc1)Cc1ccccc1,30.5 µM (inactive),> 100 µM (inactive),> 100,17.3 µM (inactive),43.7 µM (inactive),45.1 µM (inactive),33.7 µM (inactive),> 100 µM (inactive),34 µM (inactive),56.9 µM (inactive),> 100 µM (inactive),53.7 µM (inactive),92.9 µM (inactive),> 100 µM (inactive),30.3 µM (inactive),36.4 µM (inactive),29.3 µM (inactive),> 100 µM (inactive),> 100 µM (inactive),45.8 µM (inactive)
